Data reported in patent US5849721A, “Sulfated polysaccharides obtained from heparin, preparation process, pharmaceutical composition and use thereof” (Rhone-Poulenc Rorer S.A., priority 1992, dated 1998).

Test system: bleeding time
Conditions: rat, in vivo, 2 mg/kg

increase in the bleeding time: 13
Substance: heparin
